Assay results: US6406853B1, “Interventions to mimic the effects of calorie restriction” (The Regents of the University of California, priority 1999, dated 2002)
Entries after “also recorded” stand apart in the source; their conditions may differ. Read-outs that look alike come from different tables or passages of the source.

Tests used:
hepatic gene expression = assay: Global hepatic gene expression profile (GeneChip arrays, correlation coefficients); format: in vivo, mice
Experimental: GeneChip oligonucleotide-based high-density array RNA expression assays were performed according to the standard Affrymetrix protocol. The biotinylated, fragmented cRNA was hybridized to the Mu11KsubA and Mu11KsubB GeneChip arrays (Affymetrix, Santa Clara, Calif.), which contain targets for more than 11,000 known mouse genes and ESTs. The arrays were washed, stained and scanned. Scanned image analysis and data quantification were performed using the Affymetrix GeneChip analysis suite v3.2 at default parameter settings. Resultant data were normalized by global scaling.
Data analysis. Data sets were normalized furher using GeneSpring 3.0 (Silicon Genetics, San Carlos, Calif.). Negative expression levels were forced to zero, and the expression data for each animal divided by the median of all experimental values for that chip above an expression level of 10. This step reduced cliip-to-chip signal variation. Fold change in expression was calculated by dividing the mean of the expression levels in the CR groups by the mean of the expression levels in the control group.

[1] = STZ-treated animals; general statement; cited from earlier work
GRP78 mRNA = assay: Hepatic GRP78 mRNA in fasted and refed mice (dot-blot); format: in vivo; details: liver; for GRP78 mRNA response to feeding (refed mice): fasted 48 h, i.p. injection 30 min before and 30 min after feeding, killed 1.5 h after feeding, dibutyryl-cAMP given with theophylline; for GRP78 mRNA in fasted mice: mice fasted 48 h, two i.p. injections; for postprandial induction of GRP78 mRNA in STZ-diabetic mice: STZ-induced diabetes combined with dibutyryl-cAMP and theophylline
Experimental: (§1) Retired male Swiss-Webster breeder mice were purchased from Jackson Laboratories. Beginning 30 days before the studies, the mice were fed Monday and Wednesday 11 g and Friday 16.6 g of the control diet daily at 0900 h. In fasting-feeding studies, mice were deprived of food for 48 h, fed 5.5 g of the control diet at 0900 h, and killed 90 min later. The food was consumed within 30 min. Diabetes was induced by three weekly intraperitoneal injections of streptozotocin [10 mg/100 g body weight (b.w.)] in 50 mM sodium citrate, pH 4.5. Mice were diabetic one week after the last injection. Only mice with blood glucose level higher than 3 mg/ml were used. Mice injected with equivalent volumes of sodium citrate served as controls for the STZ-diabetic mice. Adrenalectomized and sham-operated mice were purchased from Jackson Laboratories. Dibutyryl cAMP (Sigma; 18 mg.100 g b.w.), and theophylline (Sigma; 3 mg/100 g b.w), glucagon (Sigma; 300 μg/100 g b.w.), dexamethasone (Sigma; 125 μg/100 g b.w), cycloheximide (Sigma; 4 mg.100 g b.w.), and puromycin (Sigma; 10 mg.100 g b.w.), were administered intraperitonealy to mice as specified in the figure legends. Mice received two doses of each drug or drug combination. The first injection was administered 30 min before feeding, and the second injection was administered 30 min after feeding. Mice were killed 1.5 h after the start of feeding. Drug-injected mice consumed similar amounts of food as control animals during the feeding period. All animal use protocols were approved by the institutional animal use committee of the University of California, Riverside.
Mice were killed and the livers, kidneys, and muscle were removed. Muscle from the hind legs and back was removed and pooled for each animal. Tissues were flash frozen in liquid nitrogen. Approximately 0.2 g of frozen tissue was homogenized for 40 s in 4 ml of TRI Reagent (Molecular Research Center, Cincinnati, Ohio) using a Tekmar Tissuemizer (Tekmar, Cincinnait, Ohio) at a setting of 55. RNA was isolated as described by the TRI Reagent supplier. RNA was resuspended in FORMAzol (Molecular Research Center) and Northern and dot blots were performed using 20 and 10 μg of RNA respectively. The RNA was analyzed using Northern blots to verify its integrity. Dot blots were used to quantify mRNA levels (24; 27). Specific mRNA levels were normalized to the level of total RNA and/or mRNA present in each sample using hybridization with radiolabeled complementary DNA to 18S rRNA and/or transcription factor S-II, as indicated in the figure legends (12; 27). The murine ERp72 2.5 kb cDNA was excised with BamHI from pcD72-1 (19). The 1235 bp murine GRP75 coding fragment was excised with HindIII from pG7z-PBP1.8 (6). A 1.5 kb coding fragment of GRP78 cDNA was produced by digestion of p3C5 with EcoRI and PstI (15). A 1.4 kb hamster GRP94 coding fragment was produced by EcoRI and Sa/K digestion of p4A3 (15). A 664 bp coding fragment of rat calreticulin (nucleotides 148 to 812) was produced by PCR from GT10.U1 (23). The entire 2.4 kb cDNA of murine PDI was excised from pGEM59.4 with SacI and BamHII (19). A 1 kb coding fragment of hamster GRP170 cDNA was excised with EcoRI and XhoI from pCRtmII (16). The 1.9 kb cDNA of murine ERp57 was excised with HindIII and SstI from pERp61 (18). The 1 kb cDNA of murine HSC70 was excised with PstI from phsc1.5 (9). The 1.3 kb PEPCK coding fragment was produced by SphI followed by SalI digestions of pGEM5ZEP (a gift from Dr. Ganner D. K. Vanderbilt University School of Medicine, Nashville, Tenn.). The fragments were isolated by agarose gel electrophoresis and radioactively labeled using a ^T7QuickPrime Kit (Pharmacia) according to the manufacturer's instructions.

Life span of mice = format: in vivo; details: mice fed aminoguanidine
PEPCK mRNA = assay: Hepatic PEPCK mRNA in fasted and refed mice (positive control); format: in vivo; details: liver; mice fasted 48 h or refed
Experimental: as §1, with “The first injection was administered 30 min before feeding, and the second injection was administered 30 min after feeding. Mice were killed 1.5 h after the start of feeding. Drug-injected mice consumed similar amounts of food as control animals during the feeding period. All animal use protocols were approved by the institutional animal use committee of the University of California, Riverside.” left out
Mice were killed and the livers, kidneys, and muscle were removed. […] The RNA was analyzed using Northern blots to verify its integrity. Dot blots were used to quantify mRNA levels (24; 27). […]

In the case of `CN(N=O)C(=O)N[C@H]1C(O)O[C@H](CO)[C@@H](O)[C@@H]1O` (mixture of isomers) [STZ, streptozotocin], the “hepatic gene expression compared with young CR and young control mice” value (hepatic gene expression; STZ-diabetic mice, diabetic about 4 weeks) is given as “very different”, the “effect on life span” value [1] is given as “shortens” and the “GRP78 mRNA response to feeding (refed mice)” value (“GRP78 mRNA response to feeding” below) (GRP78 mRNA) is given as “blunted response; also recorded: significantly reduced”. The “GRP78 mRNA in fasted mice” value (GRP78 mRNA) was “did not modify”.

In the case of `N=C(N)NN` [aminoguanidine, Aminoguanidine], the “correlation of gene expression with old CR or old control mice” value (hepatic gene expression; mice fed aminoguanidine) was “did not correlate”, the “effect on hepatic gene expression” value (hepatic gene expression; mice fed aminoguanidine) was “large effect” and the “effect on life span” value (Life span of mice) was “little or no effect”.

For `C[C@@H]1C[C@@H]([C@H](O)CC2CC(=O)NC(=O)C2)C(=O)[C@@H](C)C1` [cycloheximide], the “GRP78 mRNA response to feeding” value (GRP78 mRNA) was “strongly induced”, the “GRP78 mRNA in fasted mice” value (GRP78 mRNA) was “strongly induced; also recorded: induced the mRNA to the same extent” and the “PEPCK mRNA in both fasted and refed mice” value (PEPCK mRNA) was “increased”.

For `CCCC(=O)Nc1ncnc2c1ncn2[C@@H]1O[C@@H]2COP(=O)(O)O[C@H]2[C@H]1OC(=O)CCC` [dibutyryl cAMP, Dibutyryl cAMP], the “postprandial induction of GRP78 mRNA in STZ-diabetic mice” value (GRP78 mRNA; listed as cAMP) was “obliterated”, the “postprandial induction of GRP78 mRNA in STZ-diabetic mice” value (GRP78 mRNA; listed as dibutyryl-cAMP) was “absence of a feeding response” and the “GRP78 mRNA response to feeding” value (GRP78 mRNA) was “reduced the response”. The “GRP78 mRNA response to feeding” value (GRP78 mRNA; listed as dibutyryl-cAMP) was “blunted”.

For `COc1ccc(C[C@H](N)C(=O)N[C@H]2[C@@H](O)[C@H](n3cnc4c(N(C)C)ncnc43)O[C@@H]2CO)cc1` [puromycin], the “GRP78 mRNA response to feeding” value (GRP78 mRNA) was “fully induced” and the “GRP78 mRNA in fasted mice” value (GRP78 mRNA) was “modestly induced; also recorded: partial induction”.

In the case of glucagon, the “GRP78 mRNA response to feeding” value (GRP78 mRNA) was “reduced the response; also recorded: blunted”.
